Experimental data as given in US20090232912A1, “Method For Preparing Extract For The Prevention and Treatment Of Hyperlipidemia and Obesity From the Extract of Aster Spathulifolius Aerial Part and Composition Containing The Same” (priority 2005, published 2009).
Marks after values point to notes of the source that are not given here.

Assays:
Type in all cases: in vivo, rat (Sprague-Dawley male)
[1] = tested on: rats fed high fat diet; assay: Experiment 4: body weight, food intake and food efficiency ratio of rats fed high fat diet; settings: Exp.4 HFD rats; orally once a day 6 weeks; AE-B 125, AE-C 100, AE-1 10, ABP 1.5 mg/kg
Source text: (§1) The rats, aged 6 week-old and weighing 170˜180 g Sprague-Dawley male, were purchased from Samtaco (Seoul, Korea). After the animals were given a standard laboratory diet for 1 week, they were divided two groups each group. Rats were fed two diets: the normal diet (ND, n=10) group and high fat diet (HFD, n=50) group. 6 weeks later, HFD group were subdivided five groups. They were administrated with extract of Aster spathulifolius aerial part orally once a day for 6 weeks.
HFD group: High fat diet+0.5% carboxymethycelluose
HFD+AE-B group: High fat diet+AE-B 125 mg/kg
HFD+AE-C group: High fat diet+AE-C 100 mg/kg
HFD+AE-1 group: High fat diet+AE-110 mg/kg
HFD+ABP group: High fat diet+ABP 1.5 mg/kg
(§2) The experimental diets contain either a normal fat (11.7% of calories as fat, AIN-76A diet # 100000, Dyets Inc., Bethlehem, Pa., USA) or a high fat (40% of calories as fat, AIN-76A high fat diet # 100496, Dyets Inc., Bethlehem, Pa., USA) (Table 1). During the test period, food intake and body weight were measured twice a week. Food efficiency ratio was calculated by dividing the increase in body weight during the test period by the food intake during the period.

[2] = tested on: rats fed high fat diet; assay: Experiment 4: white adipocyte size and adipose tissue weights; settings: Exp.4 HFD rats; after 12 weeks; AE-B 125, AE-C 100, AE-1 10, ABP 1.5 mg/kg once a day 6 weeks
Source text: as §1
A is ND Group, B is HFD-C group, C is HFD+AE-B group, D is HFD+AE-C group, E is HFD+AE-1 group and F is HFD+ABP group.
(§3) After 12 weeks, rats were anesthetized with ether and sacrificed after 14 h of fasting. Blood samples were collected from hepatic vein and centrifuged (3,000 rpm for 10 min at 4° C.). Serum was frozen at −70° C. for the biochemical analysis. The epididymal and abdominal fat pad were immediately weighed, measured size of adipocyte using microscope.

[3] = tested on: rats fed high fat diet; assay: Experiment 4: hepatic lipids (TG, TC, FFA); settings: Exp.4 HFD rats; AE-B 125, AE-C 100, AE-1 10, ABP 1.5 mg/kg once a day 6 weeks
Source text: as §1
(§4) Hepatic lipid was extracted by the method devised by Folch et al. and its content was measured by the same technique used for the serum analysis. […] There was no significant difference in hepatic free fatty acid (FFA) level.

[4] = tested on: rats fed high fat diet; assay: Experiment 4: serum leptin, insulin and glucose; settings: Exp.4 HFD rats; AE-B 125, AE-C 100, AE-1 10, ABP 1.5 mg/kg once a day 6 weeks
Source text: as §1, §3
(§5) Serum leptin and insulin was measured by RIA using Linco leptin assay kit (Linco research Immunoassay, St. Louis, Mo.) and insulin standards (Linco research Immunoassay, St. Louis, Mo.) respectively (FIG. 5).

[5] = tested on: rats fed high fat diet; assay: Experiment 5: food intake, change of body weights and food efficiency ratio; settings: Exp.5 HFD rats
Procedure: as §2
as §1, with “n=8)” for “n=10)”, “n=88)” for “n=50)”, “11 groups (n=8).” for “five groups.”, “weeks. […]” for “weeks.”
AE-1 20 group: High fat diet+AE-1 (Germacrone) 20 mg/kg
AE-1 10 group: High fat diet+AE-1(Germacrone) 10 mg/kg
AE-1 5 group: High fat diet+AE-1 (Germacrone) 5 mg/kg […]
Experimental diet is same table 1 of experiment 4. Food intake, change of body weights and food efficiency ratio were shown Table 6.

[6] = tested on: rats fed high fat diet; assay: Experiment 5: adipocyte (fat) weight; settings: Exp.5 HFD rats
Procedure: as §3
as §1, with “n=8)” for “n=10)”, “n=88)” for “n=50)”, “11 groups (n=8).” for “five groups.”
Adipocyte weight were determined method of experiment 5. EASA treated groups reduced white adipocyte versus the HFD group, in a dose-dependent manner.

[7] = tested on: rats fed high fat diet; assay: Experiment 5: levels of lipid in serum; settings: Exp.5 HFD rats
Procedure: Serum triglyceride (TG), total cholesterol (TC), and HDL-cholesterol (HDL-C) levels were determined using the calorimetric method with commercial kits (Asan Diagnostics, Seoul, Korea). There was no significant difference in serum TG or HDL-C levels, although EASA-treated groups tended to be lower than the HFD-C group (FIG. 4).
as §1, with “n=8)” for “n=10)”, “n=88)” for “n=50)”, “11 groups (n=8).” for “five groups.”
In levels of TG, the HFD groups had similar values to the ND group. EASA treated groups reduced the levels of TG versus the HFD group. […] EASA treated groups reduced the levels of TC versus the HFD and ND group.

[8] = tested on: rats fed high fat diet; assay: Experiment 5: levels of lipid in liver; settings: Exp.5 HFD rats
Procedure: as §4
as §1, with “n=8)” for “n=10)”, “n=88)” for “n=50)”, “11 groups (n=8).” for “five groups.”

[9] = tested on: rats fed high fat diet; assay: Experiment 5: serum levels of leptin and insulin; settings: Exp.5 HFD rats
Procedure: as §5
as §1, with “n=8)” for “n=10)”, “n=88)” for “n=50)”, “11 groups (n=8).” for “five groups.”
Serum leptin and insulin level was measured in the same manner as in Test Example 4. Leptin is a hormone secreted from the adipocyte, in proportion to body fat mass. Leptin and insulin are deeply related with energy homeostasis. Increased leptin induces hyperinsulinemia, which in turn directly stimulates the leptin mRNA in the adipocyte.

[10] = AE-1 5 mg/kg orally once a day 6 weeks
[11] = AE-1 10 mg/kg orally once a day 6 weeks
[12] = AE-1 20 mg/kg orally once a day 6 weeks

CC(C)=C1C/C=C(\C)CC/C=C(\C)CC1=O [AE-1, Germacron]
12 wk B.W [1]: 504.40 ± 28.37^b g | FER (food efficiency ratio) [1]: 0.137 ± 0.013^b | Food intake [1]: 25.82 ± 2.91 g/day | Abdominal fat pad [2]: 14.18 ± 4.67^b g | Epididymal fat pad [2]: 10.21 ± 2.69^b g | FFA (hepatic) [3]: 0.869 ± 0.25 meq/l | TC (hepatic) [3]: 13.74 ± 0.92^c mg/g liver | TG (hepatic) [3]: 2.20 ± 0.52^b mg/g liver | Glucose (serum) [4]: 206.60 ± 42.07^ab mg/dl | Insulin (serum) [4]: 1.00 ± 0.27^bc ng/ml | Leptin (serum) [4]: 3.88 ± 1.01^b ng/ml | 12 wk B.W [5, 10]: 501.71 ± 46.64^b g | FER (food efficiency ratio) [5, 10]: 0.196 ± 0.029^b | Food intake [5, 10]: 17.89 ± 2.97 g/day | 12 wk B.W [5, 11]: 494.75 ± 45.52^b g | FER (food efficiency ratio) [5, 11]: 0.189 ± 0.026^b | Food intake [5, 11]: 18.24 ± 2.93 g/day | 12 wk B.W [5, 12]: 490.75 ± 18.27^b g | FER (food efficiency ratio) [5, 12]: 0.194 ± 0.010^b | Food intake [5, 12]: 17.48 ± 2.83 g/day | Abdominal fat [6, 10]: 14.50 ± 4.43^ab g | Epididymal fat [6, 10]: 11.15 ± 2.39^ab g | Total fat [6, 10]: 31.09 ± 8.02^b g | Visceral fat [6, 10]: 5.45 ± 2.13^b g | Abdominal fat [6, 11]: 14.60 ± 2.20^ab g | Epididymal fat [6, 11]: 9.97 ± 2.85^b g | Total fat [6, 11]: 29.55 ± 5.25^b g | Visceral fat [6, 11]: 4.98 ± 1.53^b g | Abdominal fat [6, 12]: 13.76 ± 3.11^ab g | Epididymal fat [6, 12]: 11.05 ± 1.44^b g | Total fat [6, 12]: 29.49 ± 5.26^b g | Visceral fat [6, 12]: 4.68 ± 1.78^b g | HDL-cholesterol (serum) [7, 10]: 48.39 ± 9.65 mg/dL | Total cholesterol (serum) [7, 10]: 51.93 ± 10.29^c mg/dl | Triglyceride (serum) [7, 10]: 91.51 ± 20.50^ab mg/dl | HDL-cholesterol (serum) [7, 11]: 42.41 ± 8.41 mg/dL | Total cholesterol (serum) [7, 11]: 62.56 ± 8.33^c mg/dl | Triglyceride (serum) [7, 11]: 86.94 ± 21.93^ab mg/dl | HDL-cholesterol (serum) [7, 12]: 55.80 ± 19.57 mg/dL | Total cholesterol (serum) [7, 12]: 51.91 ± 14.32^c mg/dl | Triglyceride (serum) [7, 12]: 91.12 ± 24.03^ab mg/dl | FFA (liver) [8, 10]: 0.868 ± 0.28 meq/l | TC (liver) [8, 10]: 12.81 ± 1.20^bcd mg/g liver | TG (liver) [8, 10]: 1.95 ± 0.46^b mg/g liver | FFA (liver) [8, 11]: 0.831 ± 0.30 meq/l | TC (liver) [8, 11]: 12.84 ± 1.71^bcd mg/g liver | TG (liver) [8, 11]: 1.81 ± 1.32^b mg/g liver | FFA (liver) [8, 12]: 0.775 ± 0.25 meq/l | TC (liver) [8, 12]: 12.14 ± 1.76^cd mg/g liver | TG (liver) [8, 12]: 1.88 ± 0.55^b mg/g liver | Insulin (serum) [9, 10]: 1.35 ± 0.28^bc ng/ml | Leptin (serum) [9, 10]: 7.63 ± 1.69^b ng/ml | Insulin (serum) [9, 11]: 1.06 ± 0.40^bc ng/ml | Leptin (serum) [9, 11]: 6.55 ± 6.28^bc ng/ml | Insulin (serum) [9, 12]: 0.98 ± 0.21^b ng/ml | Leptin (serum) [9, 12]: 6.70 ± 2.58^b ng/ml

CC[C@H](/C=C/[C@@H](C)[C@H]1CC[C@H]2C3=CC[C@H]4C[C@@H](O[C@@H]5O[C@H](CO)[C@@H](O)[C@H](O)[C@H]5O)CC[C@]4(C)[C@H]3CC[C@]12C)C(C)C [ABP, α-Spinasterol 3-O-β-D-glucopyranoide]
12 wk B.W [1]: 509.20 ± 39.54^ab g | FER (food efficiency ratio) [1]: 0.139 ± 0.018^b | Food intake [1]: 26.00 ± 3.64 g/day | Abdominal fat pad [2]: 14.98 ± 3.19^b g | Epididymal fat pad [2]: 11.55 ± 1.96^ab g | FFA (hepatic) [3]: 1.018 ± 0.25 meq/l | TC (hepatic) [3]: 17.59 ± 2.79^b mg/g liver | TG (hepatic) [3]: 2.65 ± 0.48^b mg/g liver | Insulin (serum) [4]: 1.21 ± 0.60^bc ng/ml | Leptin (serum) [4]: 3.98 ± 0.95^b ng/ml

CC(C)CC(N(C)C)C1(c2ccc(Cl)cc2)CCC1 (stereo not drawn) [Sibutramine, reference compound]
12 wk B.W ([5]; Sibutramine 7.5 mg/kg, 6 weeks): 462.00 ± 44.93^bc g | FER (food efficiency ratio) ([5]; Sibutramine 7.5 mg/kg, 6 weeks): 0.183 ± 0.028^b | Food intake ([5]; Sibutramine 7.5 mg/kg, 6 weeks): 16.70 ± 2.68 g/day | Abdominal fat ([6]; Sibutramine 7.5 mg/kg, 6 weeks): 11.44 ± 3.16^b g | Epididymal fat ([6]; Sibutramine 7.5 mg/kg, 6 weeks): 8.75 ± 2.57^bc g | Total fat ([6]; Sibutramine 7.5 mg/kg, 6 weeks): 25.30 ± 5.77^b g | Visceral fat ([6]; Sibutramine 7.5 mg/kg, 6 weeks): 5.11 ± 0.89^b g | HDL-cholesterol (serum) ([7]; Sibutramine 7.5 mg/kg, 6 weeks): 46.62 ± 12.21 mg/dL | Total cholesterol (serum) ([7]; Sibutramine 7.5 mg/kg, 6 weeks): 59.79 ± 19.99^c mg/dl | Triglyceride (serum) ([7]; Sibutramine 7.5 mg/kg, 6 weeks): 82.62 ± 26.39^ab mg/dl | FFA (liver) ([8]; Sibutramine 7.5 mg/kg, 6 weeks): 0.871 ± 0.68 meq/l | TC (liver) ([8]; Sibutramine 7.5 mg/kg, 6 weeks): 13.52 ± 2.15^bc mg/g liver | TG (liver) ([8]; Sibutramine 7.5 mg/kg, 6 weeks): 1.84 ± 0.21^b mg/g liver | Insulin (serum) ([9]; Sibutramine 7.5 mg/kg, 6 weeks): 1.02 ± 0.33^bc ng/ml | Leptin (serum) ([9]; Sibutramine 7.5 mg/kg, 6 weeks): 6.27 ± 1.89^bc ng/ml
